The values that follow come from ChEMBL document CHEMBL4619786, “Discovery of Novel Resorcinol Dibenzyl Ethers Targeting the Programmed Cell Death-1/Programmed Cell Death-Ligand 1 Interaction as Potential Anticancer Agents” (J Med Chem, 2020).

The test system of data set [1] is Mus musculus. Briefly: Immunostimulatory activity in mouse B16/F10 cells implanted BALB/c mouse assessed as increase in activation of tumor-microenvironment mediated activated cytotoxic T cells in tumor by measuring CD8-positive cell population at 50 mg/kg, ig administered once daily via gavage for 15 days measured 24 hrs post-last dose by immunostaining based flow cytometry (reference value: 2.2%). The class given is functional. In general terms: In flow cytometry, cells or beads pass a laser one at a time.

Data set [2] is described as follows: Cmax in Sprague-Dawley rat at 10 mg/kg, po by LC-MS/MS analysis. It counts as ADME, organism-based. The following applies: in vivo. The arrangement: dose 10 mg/kg, route oral.
Data set [3] can be described thus: Volume of distribution at steady state in Sprague-Dawley rat at 10 mg/kg, po by LC-MS/MS analysis. The class given is ADME, organism-based. The following applies: in vivo.
The subject of data set [4] is Mus musculus. The data set can be described thus: Immunostimulatory activity in mouse B16/F10 cells implanted BALB/c mouse assessed as increase in activation of tumor-microenvironment mediated helper T cells in tumor by measuring CD4-positive cell population at 50 mg/kg, ig administered once daily via gavage for 15 days measured 24 hrs post-last dose by immunostaining based flow cytometry (reference value: 4.95%). It counts as functional.

Data set [5] relates to Mus musculus. Briefly: Immunostimulatory activity in mouse B16/F10 cells implanted BALB/c mouse assessed as increase in activation of tumor-microenvironment mediated activated cytotoxic T cells in tumor by measuring CD3-positive cell population at 100 mg/kg, ig administered once daily via gavage for 15 days measured 24 hrs post-last dose by immunostaining based flow cytometry (reference value: 20.8%). It counts as functional.

The test system of data set [6] is Mus musculus. Briefly: Effect on spleen helper T cell population in mouse B16/F10 cells implanted […] mouse assessed as CD3-positive/CD4-positive cell population at 100 mg/kg, ig administered once daily via gavage for 15 days measured 24 hrs post-last dose by immunostaining based flow cytometry (reference value: 27.7 %). It counts as ADME, organism-based. The settings on record: in vivo, po.

The test system of data set [7] is Mus musculus. The data set can be described thus: Effect on activated cytotoxic T cell population in mouse B16/F10 cells implanted […] mouse assessed as CD3-positive/CD8-positive cell population in spleen at 100 mg/kg, ig administered once daily via gavage for 15 days measured 24 hrs post-last dose by immunostaining based flow cytometry (reference value: 14.2 %). The following applies: in vivo, po. The class given is organism-based.

Data set [8] relates to Mus musculus. The data set can be described thus: Effect on activated cytotoxic T cell population in mouse B16/F10 cells implanted […] mouse assessed as CD8-positive cell population in spleen at 25 mg/kg, ig administered once daily via gavage for 15 days measured 24 hrs post-last dose by immunostaining based flow cytometry (reference value: 0.383 %). It counts as organism-based. The settings on record: in vivo, po.

The subject of data set [9] is Mus musculus. Briefly: Effect on spleen helper T cell population in mouse B16/F10 cells implanted […] mouse assessed as CD3-positive/CD4-positive cell population at 50 mg/kg, ig administered once daily via gavage for 15 days measured 24 hrs post-last dose by immunostaining based flow cytometry (reference value: 27.7%). The settings on record: in vivo, po. The class given is ADME, organism-based.

Data set [10] has as its system Mus musculus. The data set can be described thus: Immunostimulatory activity in mouse B16/F10 cells implanted […] mouse assessed as increase in activation of tumor-microenvironment mediated helper T cells in tumor by measuring CD4-positive cell population at 25 mg/kg, ig administered once daily via gavage for 15 days measured 24 hrs post-last dose by immunostaining based flow cytometry (reference value: 4.95%). It counts as functional.

The nature of data set [11]: Toxicity in mouse B16/F10 cells implanted […] mouse assessed as change in thymus weight at 25 to 100 mg/kg, ig administered once daily via gavage for 15 days measured 24 hrs post-last dose. It counts as organism-based. The settings on record: in vivo, po.
Data set [12] has as its system Mus musculus. Briefly: Immunostimulatory activity in mouse B16/F10 cells implanted BALB/c mouse assessed as increase in activation of tumor-microenvironment mediated activated cytotoxic T cells in tumor by measuring CD3-positive cell population at 25 mg/kg, ig administered once daily via gavage for 15 days measured 24 hrs post-last dose by immunostaining based flow cytometry (reference value: 20.8%). It counts as functional.

As for `Cc1c(COc2cc(OCc3cccc(C#N)c3)c(CNC(C)(C)C(=O)O)cc2Cl)cccc1-c1ccccc1`, the Activity in the data set on Mus musculus [1] amounted to 5.76%; with Mus musculus [4] it was 2.27%; in the data set with Mus musculus [5], 18.7%; in the data set with Mus musculus [6] it was 25%; in the data set on Mus musculus [7] it was 11.6%; in the data set on Mus musculus [8], 0.452%. The Activity in the data set with Mus musculus [9] is recorded as 28.2%; with Mus musculus [10], 4.36%; in data set [11], “Non-Toxic”; with Mus musculus [12], 18%. Also, the Cmax (commonly the maximum level reached in the sampled fluid or tissue) in data set [2] is 69.5 ng/mL. The Vdss in data set [3] stood at 290.3 L/kg.
